From ChEMBL document CHEMBL5126615, “Identification of RAD51-BRCA2 Inhibitors Using N-Acylhydrazone-Based Dynamic Combinatorial Chemistry” (ACS Med Chem Lett, 2022) come the findings set out here.

Activity calls are given as the source filed them. No cut-off for these calls is given here.

Tested on in one experiment: not listed separately
Briefly: Inhibition of recombinant human His-tagged RAD51 expressed in Escherichia coli Rosetta2(DE3)pLysS cells/BRCA2 (unknown origin) by ELISA. Background: ELISA stands for enzyme-linked immunosorbent assay.
For orientation: EC50 means the midpoint of the concentration-response curve. With `O=C(CCCOc1ccc(Cl)cc1Cl)N/N=C/c1ccc2nccnc2c1`, the half-maximal effective concentration (EC50) turned out to be 35 µM.

As for `O=C(CCCOc1ccc(Cl)cc1Cl)N/N=C/c1ccc(C(F)(F)F)nc1`, the EC50 was 18 µM.

With `O=C(CCCOc1ccc(Cl)cc1Cl)N/N=C/c1cccc(C(F)(F)F)c1`, the EC50 was found to be 19 µM.

Regarding `COc1cccc(/C=N/NC(=O)CCCOc2ccc(Cl)cc2Cl)c1`, the concentration giving a half-maximal response (EC50) amounted to 60 µM.

Regarding `COc1ccc(/C=N/NC(=O)CCCOc2ccc(Cl)cc2Cl)cn1`, the EC50 is 110 µM.

In the case of `O=C(CCCOc1ccc(Cl)cc1Cl)N/N=C/c1cccnc1F`, the EC50 worked out at 19 µM.

On to `CN(C)c1ccc(/C=N/NC(=O)[C@H](Cc2ccccc2)NC(=O)OC(C)(C)C)cc1`, for which the 50% effective concentration (EC50) stood at 70 µM.

`Cc1cccc(Cn2nc(C(C)(C)C)cc2C(=O)N/N=C/c2ccc(N(C)C)cc2)c1`: the EC50 is 130 µM.

Turning to `O=C(CCCOc1ccc(Cl)cc1Cl)N/N=C/c1cc2c(s1)CCCC2`, the concentration giving a half-maximal response (EC50) was found to be 86 µM.

As to `O=C(CCCOc1ccc(Cl)cc1Cl)N/N=C/c1ccc2cc[nH]c2c1`, the concentration for a half-maximal effect (EC50) is 50 µM.

Another experiment concerns the target T1, DNA repair protein RAD51 homolog 1 (Homo sapiens) (UniProt Q06609).
T1 sequence (whole entry): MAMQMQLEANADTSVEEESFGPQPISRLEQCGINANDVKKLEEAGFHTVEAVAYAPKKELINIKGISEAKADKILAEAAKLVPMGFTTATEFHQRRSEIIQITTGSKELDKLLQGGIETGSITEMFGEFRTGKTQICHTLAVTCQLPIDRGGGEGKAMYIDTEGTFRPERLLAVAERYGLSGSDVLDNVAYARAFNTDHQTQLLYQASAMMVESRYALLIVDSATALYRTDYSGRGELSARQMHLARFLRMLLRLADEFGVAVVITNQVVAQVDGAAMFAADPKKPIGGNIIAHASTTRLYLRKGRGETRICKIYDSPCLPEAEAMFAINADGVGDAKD
Description: Binding affinity to recombinant human His-tagged RAD51 expressed in Escherichia coli Rosetta2(DE3)pLysS cells by 19F-NMR assay.
Regarding `O=C(CCCOc1ccc(Cl)cc1Cl)N/N=C/c1cccnc1F`, the outcome was Active.
